Measured values from US20230287389A1, “A METHOD FOR GENERATING NEW MUTATION IN ORGANISM AND USE THEREOF” (Qingdao Kingagroot Chemical Compound Co., Ltd., priority 2019, published 2023).

Assays:
[1] = tested on: T1 generation OsALS W548 site and OsSWEET14 double-site edited seedlings; test: Resistance test of T1 generation OsALS W548L edited seedlings to ALS inhibitor herbicides; type: in vivo, Oryza sativa; details: for Resistance of OsALS W548L mutant strain: field concentrations
Protocol: After the propagation of TO strains in which the occurrence of OsALS W548L mutation was detected, the T1 generation mutant seedling strains were tested for herbicide resistance with pyroxsulam, imazapic, nicosulfuron and flucarbazone-Na at field concentrations.

Arabidopsis thaliana = test: Selection of Arabidopsis thaliana seedlings on imazapic medium; type: in vivo
Protocol: After the seeds of the T1 strain were harvested from single plant, the seeds of different strains of two vectors were selected and spread on the imazapic selection medium (MS medium+0.24 μg/mL imazapic) to perform selection, and the positive seedlings were transplanted to the soil one week later and subjected to molecular detection, in which the method was the same as step 5.

[2] = tested on: T1 generation OsACCase2 W2038L edited seedlings; test: Resistance test of T1 generation OsACCase2 W2038L edited seedlings to ACCase inhibitor herbicides; type: in vivo, Oryza sativa; details: for Resistance of OsACCase2 W2038L mutant strain: field concentrations
Protocol: After the propagation of the TO strain containing the W2038L mutation, the T1 generation mutant seedlings were tested for herbicide resistance with quizalofop-p and haloxyfop-p in field concentrations.

COc1nn(C(=O)[N-]S(=O)(=O)c2ccccc2OC(F)(F)F)c(=O)n1C.[Na+] [flucarbazone-Na]
Resistance of W548L edited strain QY360-7-9 ([1]; 2 g/mu active ingredient of flucarbazone-Na): developed resistance | Resistance of OsALS W548L mutant strain [1]: significant resistance

Cc1cnc(C2=NC(=O)C(C)(C(C)C)N2)c(C(=O)O)c1 (stereo not drawn) [imazapic]
Resistance of W548L edited strain QY360-7-11 ([1]; 7 g/mu active ingredient of imazapic): developed resistance | Resistance of OsALS W548L mutant strain [1]: significant resistance | Response of W574M edited T1 plant to imazapic treatment (Arabidopsis thaliana; Example 3): showed resistance | Growth of wild-type Col-0 on imazapic resistant medium (Arabidopsis thaliana; MS medium + 0.24 μg/mL imazapic): could not grow | Growth of positive plants of the mutant strains on imazapic resistant medium (Arabidopsis thaliana; MS medium + 0.24 μg/mL imazapic, T2): could grow normally

COc1cc(OC)n2nc(NS(=O)(=O)c3c(C(F)(F)F)ccnc3OC)nc2n1 [pyroxsulam]
Resistance of W548L edited strains QY360-7-2 and QY360-7-11 ([1]; 2 g/mu active ingredient of pyroxsulam): developed resistance | Resistance of OsALS W548L mutant strain [1]: significant resistance

C[C@@H](Oc1ccc(Oc2ncc(C(F)(F)F)cc2Cl)cc1)C(=O)O [Haloxyfop-p]
Resistance of W2038L edited strains QY367-7-12 and QY367-7-18 ([2]; 5 g/mu active ingredient of Haloxyfop-p): developed resistance | Resistance of OsACCase2 W2038L mutant strain [2]: significantly resistant

C[C@@H](Oc1ccc(Oc2cnc3cc(Cl)ccc3n2)cc1)C(=O)O [quizalofop-p]
Resistance of W2038L edited strains QY367-5-10 and QY367-5-21 ([2]; 5 g/mu active ingredient of quizalofop-p): developed resistance | Resistance of OsACCase2 W2038L mutant strain [2]: significantly resistant

COc1cc(OC)nc(NC(=O)NS(=O)(=O)c2ncccc2C(=O)N(C)C)n1 [nicosulfuron]
Resistance of W548L edited strain QY360-7-11 ([1]; 4 g/mu active ingredient of nicosulfuron): developed resistance | Resistance of OsALS W548L mutant strain [1]: significant resistance
